What follows are compounds tested on rhythmic bladder contractions in rats (assay: Inhibitory effect against rhythmic bladder contractions in rats). Conditions: anesthetized female SD rats, intravenous, dose 0.001 mg/kg body weight.
Format: in vivo
Method: Inhibitory Effect Against Rhythmic Bladder Contractions in Rats
Female SD rats were anesthetized with an intraperitoneal administration of urethane (1.0 g/kg). A polyethylene tube was inserted from the urethra to the bladder and the tube was fixed by ligation. Then physiological saline was appropriately infused (infusion rate: about 0.2 ml/min., maximum: about 1.5 ml/animal) through the tube to cause rhythmic bladder contractions. The rhythmic bladder contractions were monitored by measuring the intravesical pressure through a polyethylene tube inserted into the bladder. After confirming that stable rhythmic bladder contractions occurred at least 10 times, a vehicle containing a prescribed dose of a test compound was intravenously administration at a dose of 1 ml/kg. In cases where the intravesical pressure, within 10 minutes after the administration of the test compound, decreased to 50% or less of the intravesical pressure immediately […] the administration, the test compound was judged as having inhibitory effect against urinary bladder contractions, and the time period until the intravesical pressure returned to more than 50% was defined as inhibitory time of rhythmic bladder contractions. As the vehicle for administration, physiological saline was used for test compounds 4, 7, 8, 9, 10, 13, 29, 30, 31, 33, 34, 75, 76, 79, 80, 81, 82, 84, 89, 90, 91, 93, 94, 95, 110 and 111, aqueous 10% dimethylsulfoxide (DMSO) solution was used for test compounds 11, 12, 14, 15, 16, 17, 18, 20, 21, 23, 28, 46, 47, 50, 55, 56, 57, 58, 59, 60, 61, 62, 63, 64, 65, 66, 68, 69, 70, 71, 72, 73, 74, 77, 78, 83, 85, 86, 87, 88, 92, 96, 97, 98, 99, 100, […], 103, 104, 105, 106, 107, 108 and […], aqueous 20% dimethylsulfoxide (DMSO) solution was used for test compounds 1, 2, 67 and 101, and aqueous 5% xylitol solution was used for test compounds 5 and 35. The aqueous 10% DMSO solution, aqueous 20% DMSO solution and the aqueous 5% xylitol solution per se, which may influence on the inhibitory time of rhythmic bladder contractions, were also tested at a dose of 1 ml/kg. With any of the compounds, prolongation of the inhibitory time of rhythmic bladder contractions was observed when compared with that obtained in the group to which the vehicle alone was administered.
In the case of `O=C1c2ccc(F)cc2C(=O)N1[C@H]1CC[C@@]2(O)[C@H]3Cc4ccc(O)c5c4[C@@]2(CCN3CC2CC2)[C@H]1O5` [Compound 68, N-(17-cyclopropylmethyl-4,5α-epoxy-3,14-dihydroxymorphinan-6α-yl)-4-fluorophthalimide], the “Mean Inhibitory Time of Rhythmic Bladder Contractions” value (“Mean Inhibitory Time” for short) is reported as 18.0 min.

Same assay, conditions: anesthetized female SD rats, intravenous, dose 0.003 mg/kg body weight
In the case of `O=C1c2ccccc2C(=O)N1[C@H]1CC[C@@]2(O)[C@H]3Cc4ccc(O)c5c4[C@@]2(CCN3CC2CC2)[C@H]1O5` [Compound 66, N-(17-cyclopropylmethyl-4,5α-epoxy-3,14-dihydroxymorphinan-6α-yl)-phthalimide], the “Mean Inhibitory Time” value is reported as 27.4 min.
`O=C1c2cccc(F)c2C(=O)N1[C@H]1CC[C@@]2(O)[C@H]3Cc4ccc(O)c5c4[C@@]2(CCN3CC2CC2)[C@H]1O5` [Compound 67, N-(17-cyclopropylmethyl-4,5α-epoxy-3,14-dihydroxymorphinan-6α-yl)-3-fluorophthalimide] was tested, and the “Mean Inhibitory Time” value was 27.3 min.

Same assay, conditions: anesthetized female SD rats, intravenous, dose 0.005 mg/kg body weight
`C=CCN1CC[C@]23c4c5ccc(O)c4O[C@H]2[C@@H](N2C(=O)c4cccc(F)c4C2=O)CC[C@@]3(O)[C@H]1C5` [Compound 63, N-(17-allyl-4,5α-epoxy-3,14-dihydroxymorphinan-6α-yl)-3-fluorophthalimide] was tested, and the “Mean Inhibitory Time” value was 16.1 min.

Same assay, conditions: anesthetized female SD rats, intravenous, dose 0.01 mg/kg body weight
For `C=CCN1CC[C@]23c4c5ccc(O)c4O[C@H]2[C@H](N2C(=O)c4cccc(F)c4C2=O)CC[C@@]3(O)[C@H]1C5` [Compound 62, N-(17-allyl-4,5α-epoxy-3,14-dihydroxymorphinan-6β-yl)-3-fluorophthalimide], the “Mean Inhibitory Time” value was 15.3 min.
In the case of `C=CCN1CC[C@]23c4c5ccc(O)c4O[C@H]2[C@@H](N2C(=O)c4ccccc4C2=O)CC[C@@]3(O)[C@H]1C5` [Compound 64, N-(17-allyl-4,5α-epoxy-3,14-dihydroxymorphinan-6α-yl)-phthalimide], the “Mean Inhibitory Time” value is reported as 20.8 min.
`C=CCN1CC[C@]23c4c5ccc(O)c4O[C@H]2[C@@H](N2C(=O)c4ccc(F)cc4C2=O)CC[C@@]3(O)[C@H]1C5` [Compound 65, N-(17-allyl-4,5α-epoxy-3,14-dihydroxymorphinan-6α-yl)-4-fluorophthalimide] was tested, and the “Mean Inhibitory Time” value was 18.6 min.
With `CC1=C(C)C(=O)N([C@H]2CC[C@@]3(O)[C@H]4Cc5ccc(O)c6c5[C@@]3(CCN4CC3CC3)[C@H]2O6)C1=O` [Compound 76, N-(17-cyclopropylmethyl-4,5α-epoxy-3,14-dihydroxy-morphinan-6α-yl)-2,3-dimethyl-maleimide] the “Mean Inhibitory Time” value was 16.7 min.
`O=C1C2=C(CCCC2)C(=O)N1[C@@H]1CC[C@@]2(O)[C@H]3Cc4ccc(O)c5c4[C@@]2(CCN3CC2CC2)[C@H]1O5` [Compound 77, N-(17-cyclopropylmethyl-4,5α-epoxy-3,14-dihydroxy-morphinan-6β-yl)-3,4,5,6-tetrahydrophthalimide] was tested, and the “Mean Inhibitory Time” value was 16.6 min.

Same assay, conditions: anesthetized female SD rats, intravenous, dose 0.03 mg/kg body weight
For `C=CCN1CC[C@]23c4c5ccc(O)c4O[C@H]2[C@H](N2C(=O)c4ccc(F)cc4C2=O)CC[C@@]3(O)[C@H]1C5` [Compound 58, N-(17-allyl-4,5α-epoxy-3,14-dihydroxymorphinan-6β-yl)-4-fluorophthalimide], the “Mean Inhibitory Time” value was 19.3 min.
`C=CCN1CC[C@]23c4c5ccc(O)c4O[C@H]2[C@H](N2C(=O)c4cccc(C)c4C2=O)CC[C@@]3(O)[C@H]1C5` [Compound 60, N-(17-allyl-4,5α-epoxy-3,14-dihydroxymorphinan-6β-yl)-3-methylphthalimide] was tested, and the “Mean Inhibitory Time” value was 19.7 min.
For `C=CCN1CC[C@]23c4c5ccc(O)c4O[C@H]2[C@@H](N2C(=O)c4cccc(C)c4C2=O)CC[C@@]3(O)[C@H]1C5` [Compound 61, N-(17-allyl-4,5α-epoxy-3,14-dihydroxymorphinan-6α-yl)-3-methylphthalimide], the “Mean Inhibitory Time” value was 22.6 min.
For `C=CCN1CC[C@]23c4c5ccc(O)c4O[C@H]2[C@H](N2C(=O)C4=C(CCCC4)C2=O)CC[C@@]3(O)[C@H]1C5` [Compound 73, N-(17-allyl-4,5α-epoxy-3,14-dihydroxymorphinan-6β-yl)-3,4,5,6-tetrahydrophthalimide], the “Mean Inhibitory Time” value was 13.4 min.
In the case of `C=CCN1CC[C@]23c4c5ccc(O)c4O[C@H]2[C@@H](N2C(=O)C4=C(CCCC4)C2=O)CC[C@@]3(O)[C@H]1C5` [Compound 74, N-(17-allyl-4,5α-epoxy-3,14-dihydroxymorphinan-6α-yl)-3,4,5,6-tetrahydrophthalimide], the “Mean Inhibitory Time” value is reported as 24.0 min.

Same assay, conditions: anesthetized female SD rats, intravenous, dose 0.1 mg/kg body weight
In the case of `O=C1/C(=C/c2ccccc2)CCN1[C@@H]1CC[C@@]2(O)[C@H]3Cc4ccc(O)c5c4[C@@]2(CCN3CC2CC2)[C@H]1O5` [Compound 50, 1-(17-cyclopropylmethyl-4,5α-epoxy-3,14-dihydroxy-morphinan-6β-yl)-3-benzylidene-pyrrolidin-2-one], the “Mean Inhibitory Time” value is reported as 12.8 min.
In the case of `O=C1c2cc(Cl)c(Cl)cc2C(=O)N1[C@@H]1CC[C@@]2(O)[C@H]3Cc4ccc(O)c5c4[C@@]2(CCN3CC2CC2)[C@H]1O5` [Compound 55, N-[17-(cyclopropylmethyl)-4,5α-epoxy-3,14-dihydroxymorphinan-6β-yl]-4,5-dichlorophthaimide], the “Mean Inhibitory Time” value is reported as 15.0 min.
With `C=CCN1CC[C@]23c4c5ccc(O)c4O[C@H]2[C@H](N2C(=O)c4ccc(C)cc4C2=O)CC[C@@]3(O)[C@H]1C5` [Compound 56, N-(17-allyl-4,5α-epoxy-3,14-dihydroxymorphinan-6β-yl)-4-methylphthalimide] the “Mean Inhibitory Time” value was 13.7 min.
For `C=CCN1CC[C@]23c4c5ccc(O)c4O[C@H]2[C@H](N2C(=O)c4ccc(Cl)cc4C2=O)CC[C@@]3(O)[C@H]1C5` [Compound 57, N-(17-allyl-4,5α-epoxy-3,14-dihydroxymorphinan-6β-yl)-4-chlorophthalimide], the “Mean Inhibitory Time” value was 24.2 min.
`C=CCN1CC[C@]23c4c5ccc(O)c4O[C@H]2[C@H](N2C(=O)c4cc(Cl)c(Cl)cc4C2=O)CC[C@@]3(O)[C@H]1C5` [Compound 59, N-(17-allyl-4,5α-epoxy-3,14-dihydroxymorphinan-6β-yl)-4,5-dichlorophthalimide] was tested, and the “Mean Inhibitory Time” value was 6.1 min.
For `O=C1[C@H]2CCCC[C@H]2C(=O)N1[C@@H]1CC[C@@]2(O)[C@H]3Cc4ccc(O)c5c4[C@@]2(CCN3CC2CC2)[C@H]1O5` [Compound 69, N-(17-cyclopropylmethyl-4,5α-epoxy-3,14-dihydroxymorphinan-6β-yl)-hexahydrophthalimide], the “Mean Inhibitory Time” value was 15.7 min.
With `O=C1C(c2ccccc2)=C(c2ccccc2)C(=O)N1[C@@H]1CC[C@@]2(O)[C@H]3Cc4ccc(O)c5c4[C@@]2(CCN3CC2CC2)[C@H]1O5` [Compound 70, N-(17-cyclopropylmethyl-4,5α-epoxy-3,14-dihydroxymorphinan-6β-yl)-2,3-diphenylmaleimide] the “Mean Inhibitory Time” value was 8.9 min.
For `O=C1CC(c2ccccc2)C(=O)N1[C@@H]1CC[C@@]2(O)[C@H]3Cc4ccc(O)c5c4[C@@]2(CCN3CC2CC2)[C@H]1O5` (stereo partly drawn) [Compound 71, N-(17-cyclopropylmethyl-4,5α-epoxy-3,14-dihydroxymorphinan-6β-yl)-2-phenyl-succinimide], the “Mean Inhibitory Time” value was 24.9 min.
For `CC1=C(C)C(=O)N([C@@H]2CC[C@@]3(O)[C@H]4Cc5ccc(O)c6c5[C@@]3(CCN4CC3CC3)[C@H]2O6)C1=O` [Compound 75, N-(17-cyclopropylmethyl-4,5α-epoxy-3,14-dihydroxy-morphinan-6β-yl)-2,3-dimethyl-maleimide], the “Mean Inhibitory Time” value was 20.2 min.

Same assay, conditions: anesthetized female SD rats, intravenous, dose 0.3 mg/kg body weight
With `O=C1C(Cc2ccccc2)CCN1[C@H]1CC[C@@]2(O)[C@H]3Cc4ccc(O)c5c4[C@@]2(CCN3CC2CC2)[C@H]1O5` (stereo partly drawn) [Compound 35, 1-(17-cyclopropylmethyl-4,5α-epoxy-3,14-dihydroxy-morphinan-6α-yl)-3-benzyl-pyrrolidin-2-one] the “Mean Inhibitory Time” value was 29.9 min.

Same assay, conditions: anesthetized female SD rats, intravenous, dose 1.0 mg/kg body weight
In the case of `O=C1CCCN1[C@@H]1CC[C@@]2(O)[C@H]3Cc4ccc(O)c5c4[C@@]2(CCN3CC2CC2)[C@H]1O5` [Compound 46, 1-(17-cyclopropylmethyl-4,5α-epoxy-3,14-dihydroxy-morphinan-6β-yl)-pyrrolidin-2-one], the “Mean Inhibitory Time” value is reported as 20.0 min.
With `O=C1C(Cc2ccccc2)CCN1[C@@H]1CC[C@@]2(O)[C@H]3Cc4ccc(O)c5c4[C@@]2(CCN3CC2CC2)[C@H]1O5` (stereo partly drawn) [Compound 47, 1-(17-cyclopropylmethyl-4,5α-epoxy-3,14-dihydroxy-morphinan-6β-yl)-3-benzyl-pyrrolidin-2-one] the “Mean Inhibitory Time” value was 21.8 min.
